In test [1] the target is T1, human SLC6A19 (Homo sapiens, UniProt Q695T7).
T1 construct: expressed in transfected cells
T1 sequence (Q695T7 1-634): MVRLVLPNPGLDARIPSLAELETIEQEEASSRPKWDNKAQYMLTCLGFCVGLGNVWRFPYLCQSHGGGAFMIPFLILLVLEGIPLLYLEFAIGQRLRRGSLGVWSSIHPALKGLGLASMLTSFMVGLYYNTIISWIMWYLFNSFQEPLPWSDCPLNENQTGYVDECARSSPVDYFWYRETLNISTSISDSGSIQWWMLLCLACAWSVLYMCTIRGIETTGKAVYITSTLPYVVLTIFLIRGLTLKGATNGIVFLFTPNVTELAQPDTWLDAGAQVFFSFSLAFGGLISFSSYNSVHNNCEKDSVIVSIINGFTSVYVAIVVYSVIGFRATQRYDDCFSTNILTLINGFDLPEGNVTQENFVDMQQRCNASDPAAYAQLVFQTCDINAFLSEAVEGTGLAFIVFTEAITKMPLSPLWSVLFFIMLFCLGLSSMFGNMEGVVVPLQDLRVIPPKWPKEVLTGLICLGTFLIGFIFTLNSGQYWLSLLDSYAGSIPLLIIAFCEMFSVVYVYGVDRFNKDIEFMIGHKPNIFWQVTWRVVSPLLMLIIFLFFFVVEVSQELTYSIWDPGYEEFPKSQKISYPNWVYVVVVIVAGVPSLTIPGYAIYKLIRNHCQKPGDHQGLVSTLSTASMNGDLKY
T1 sequence (Q9HBJ8 15-222 partner): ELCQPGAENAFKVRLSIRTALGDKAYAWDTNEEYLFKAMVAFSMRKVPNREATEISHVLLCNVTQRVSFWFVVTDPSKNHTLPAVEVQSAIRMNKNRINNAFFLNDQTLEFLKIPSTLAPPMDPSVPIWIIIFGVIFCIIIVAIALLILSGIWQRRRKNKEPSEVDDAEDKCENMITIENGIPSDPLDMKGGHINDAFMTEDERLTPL
Description: Example B-1: L-[3H]leucine uptake, liquid scintillation, in CHO cells with doxycycline-inducible expression of human SLC6A19 and TMEM27. Format: cell-based. Conditions: read-out: SLC6A19_Radioligand Uptake Assay IC50. Here is the method:
CHO cells with doxycycline-inducible expression of human SLC6A19 and TMEM27 were maintained in T150 cell culture treated flasks using cell culture media, which consisted of 1×DMEM/F12 (Gibco, 11330057), 10% Tet System-Approved FBS (Gibco, A4736401), 100 U/mL Penicillin-Streptomycin (Gibco, 15140122), 1×GlutaMAX™ Supplement (Gibco, 35050061), 1 mM Sodium Pyruvate (Gibco, 11360070), 1.1 mg/mL Sodium Bicarbonate (Gibco, 25080094), 5 μg/mL Blasticidin (InvivoGen, ant-bl-1), 150 μg/mL Hygromycin B Gold (InvivoGen, ant-hg-5), and 500 μg/mL G418 (Sigma-Aldrich, G8168-100 mL). In preparation for the assay, this media was aspirated and 5 mL of TryμLE™ Express Enzyme (Gibco, 12605010) was added to each flask to initiate cell dissociation. The flasks were then incubated (humidified, 37° C. with 5% CO2) for 2 minutes. After incubation, 10 mL of pre-warmed cell culture media was added to each flask. The cell suspension was collected and centrifuged for 5 minutes at 200xg.
The supernatant was aspirated and the pellet was resuspended in 5 mL pre-warmed cell culture media. The resuspended cells were counted using the Countess Cell Counting Chamber (Invitrogen) and the cell concentration of the suspension was readjusted to 1 million live cells/mL using pre-warmed cell culture media. 25 uL/well (25,000 cells/well) of readjusted cell suspension was dispensed into Poly-D-Lysine 384-well white/clear plates (Corning, 354660) using a MultiDrop Combi (Thermo Electron Corp). To induce expression of Human SLC6A19 and TMEM27, 25 uL/well of cell culture media containing 2 μg/mL doxycycline was added to the first 23 columns of each plate resulting in a final concentration of […] doxycycline. 25 μL/well of cell culture media was added to the last column of each plate, to act as negative control wells for Human SLC6A19 and TMEM27 expression. Assay plates were then incubated (humidified, 37° C. with 5% CO2) for 18 hours. After incubation, the media was aspirated and the wells were washed 4 times with pre-warmed HBSS (Sigma-Aldrich, H8264-1L) using an Apricot S-Pipette S2 (Apricot Designs), such that 5 uL/well HBSS was remaining at the end of each wash. […] At this step, the final in-well DMSO concentration in the assay plate is 0.5%. All compounds were plated in a duplicate 8-point dilution series that consisted of 3-fold dilutions. […] Afterwards, 15 uL/well of 3.2 mM hot:cold leucine solution (1:15000 ratio of L-[3,4,5-3H(N)] Leucine (Perkin Elmer, NET460001MC) to L-Leucine (Sigma-Aldrich, L8912-25G) diluted with HBSS (Sigma-Aldrich, H8264-1L)) was added using the Viaflo 384 (Integra), for a final concentration of 1.6 mM hot:cold leucine solution. The plates were then incubated (humidified, 37° C. with 5% CO2) for 20 minutes to conduct the uptake reaction. Immediately after the incubation, the plates were washed 4 times with HBSS (Sigma-Aldrich, H8264-1L) using the ELx405 Microplate Washer (Biotek) to terminate the uptake reaction. After the washes, 50 uL/well Ultima Gold Scintillation Cocktail (Perkin Elmer, 6013326) was added to each well using the Viaflo 384 (Integra). The plates were then incubated (humidified, 37° C. with 5% CO2) on a plate shaker at 200 rpm for 2 hours. After incubation, the plates were removed from the shaker and kept at room temperature for 15 minutes.
Liquid scintillation analysis was performed using the MicroBeta2 Microplate Counter (Perkin Elmer). Activity (%) was derived by normalizing the average of positive control compound treated wells to 0% and the average of DMSO (negative control) wells to 100%. Collaborative Drug Discovery software was used for graphing data.

The target in test [2] is T1, human SLC6A19. Description: Example B2: 13C6,15N-isoleucine uptake, RapidFire mass spectrometry, in CHO cells with doxycycline-inducible expression of human SLC6A19 and TMEM27. Type of test: cell-based. Conditions: read-out: SLC6A19_RapidFire Uptake Assay IC50. Summed up:
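CHO cells were induced with doxycycline to express human SLC6A19 with TMEM27, then pre-incubated 20 min at 37 °C with compounds (2-fold, 10-point, duplicate). Uptake of 13C6,15N-isoleucine (2 mM solution added) over a further 20 min was measured by RapidFire mass spectrometry, using 13C-leucine as internal standard.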

One may read the IC50 as the concentration that gives 50% inhibition.

The structures appear in SMILES notation.

In the case of `CCN(C(=O)NCc1cc2cc(Cl)ccc2[nH]1)[C@@H]1CCCN(C(C)=O)C1` [Compound 163, (R)-1-(1-acetylpiperidin-3-yl)-3-((5-chloro-1H-indol-2-yl)methyl)-1-ethylurea], the IC50 at human SLC6A19 [1] was 145 nM; on human SLC6A19 [2], 49.4 nM.
As to `CC(=O)N1CCC[C@@H](N(C)C(=O)NCc2cc3cc(C)ccc3[nH]2)C1` [Compound 218, (R)-1-(1-acetylpiperidin-3-yl)-1-methyl-3-((5-methyl-1H-indol-2-yl)methyl)urea], the IC50 was 273 nM at human SLC6A19 [1] and 647 nM at human SLC6A19 [2].
The matching figures for `CCn1ccc(C(=O)N2CCC[C@@H](N(C)C(=O)NCc3cc4cc(Cl)ccc4[nH]3)C2)n1` [Compound 240, (R)-3-((5-chloro-1H-indol-2-yl)methyl)-1-(1-(1-ethyl-1H-pyrazole-3-carbonyl)piperidin-3-yl)-1-methylurea]: 154 nM and 160 nM.
Regarding `CN(C(=O)NCc1cc2cc(Cl)ccc2[nH]1)[C@@H]1CCCN(C(=O)c2ccccn2)C1` [Compound 241, (R)-3-((5-chloro-1H-indol-2-yl)methyl)-1-methyl-1-(1-picolinoylpiperidin-3-yl)urea], the IC50 on human SLC6A19 [1] was 387 nM; at human SLC6A19 [2] it was 626 nM.
As to `CC(=O)N1CCC[C@@H](N(C)C(=O)NCCc2cc(-c3cc4ccccc4[nH]3)c(Cl)cc2F)C1` [Compound 245, (R)-1-(1-acetylpiperidin-3-yl)-3-(4-chloro-2-fluoro-5-(1H-indol-2-yl)phenethyl)-1-methylurea], the IC50 was 459 nM at human SLC6A19 [1] and 151 nM on human SLC6A19 [2].
On to `CC(=O)N1CCC[C@@H](N(C)C(=O)NCc2cc3cc(C4CC4)ccc3[nH]2)C1` [Compound 220, (R)-1-(1-acetylpiperidin-3-yl)-3-((5-cyclopropyl-1H-indol-2-yl)methyl)-1-methylurea], for which the values for the IC50 on human SLC6A19 [1] and at human SLC6A19 [2] were 794 nM and 953 nM, respectively.
In the same order, the values of `CN(C(=O)NCc1cc2cc(Cl)ccc2[nH]1)[C@@H]1CCCN(C(=O)CC2CCC2)C1` [Compound 120, (R)-3-((5-chloro-1H-indol-2-yl)methyl)-1-(1-(2-cyclobutylacetyl)piperidin-3-yl)-1-methylurea] are 574 nM and 949 nM.
The matching figures for `CC(=O)N1CCC[C@@H](N(C)C(=O)NCc2cc3cc(Cl)c(OCc4cc(C)on4)cc3[nH]2)C1` [Compound 135, (R)-1-(1-acetylpiperidin-3-yl)-3-((5-chloro-6-((5-methylisoxazol-3-yl)methoxy)-1H-indol-2-yl)methyl)-1-methylurea]: 162 nM and 326 nM.
`CN(C(=O)NCc1cc2cc(Cl)ccc2[nH]1)[C@@H]1CCCN(C(=O)Cc2ccncc2)C1` [Compound 188, (R)-3-((5-chloro-1H-indol-2-yl)methyl)-1-methyl-1-(1-(2-(pyridin-4-yl)acetyl)piperidin-3-yl)urea]: the IC50 came out at 656 nM at human SLC6A19 [1] and 947 nM on human SLC6A19 [2].
The matching figures for `CN(C(=O)NCc1cc2cc(Cl)ccc2[nH]1)[C@@H]1CCCN(C(=O)c2cnco2)C1` [Compound 239, (R)-3-((5-chloro-1H-indol-2-yl)methyl)-1-methyl-1-(1-(oxazole-5-carbonyl)piperidin-3-yl)urea]: 209 nM and 287 nM.
In the case of `CC(=O)N1CCC[C@@H](N(CC(F)(F)F)C(=O)NCc2cc3cc(Cl)ccc3[nH]2)C1` [Compound 195, (R)-1-(1-acetylpiperidin-3-yl)-3-((5-chloro-1H-indol-2-yl)methyl)-1-(2,2,2-trifluoroethyl)urea], the IC50 turned out to be 102 nM on human SLC6A19 [1] and 62 nM on human SLC6A19 [2].
`CNC(=O)N1CCC[C@@H](N(C)C(=O)NCc2cc3cc(Cl)ccc3[nH]2)C1` [Compound 171, (R)-3-(3-((5-chloro-1H-indol-2-yl)methyl)-1-methylureido)-N-methylpiperidine-1-carboxamide]: the IC50 at human SLC6A19 [1] stood at 150 nM; at human SLC6A19 [2], 80.6 nM.
For the compound `CN(C(=O)NCc1cc2cc(Cl)ccc2[nH]1)[C@@H]1CCCN(C(=O)Cc2ccon2)C1` [Compound 201, (R)-3-((5-chloro-1H-indol-2-yl)methyl)-1-(1-(2-(isoxazol-3-yl)acetyl)piperidin-3-yl)-1-methylurea], the IC50 at human SLC6A19 [1] was 205 nM; at human SLC6A19 [2], 227 nM.
As for `Cc1nc(C(=O)N2CCC[C@@H](N(C)C(=O)NCc3cc4cc(Cl)ccc4[nH]3)C2)co1` [Compound 200, (R)-3-((5-chloro-1H-indol-2-yl)methyl)-1-methyl-1-(1-(2-methyloxazole-4-carbonyl)piperidin-3-yl)urea], the IC50 at human SLC6A19 [1] worked out at 350 nM; at human SLC6A19 [2], 512 nM.
Turning to `CN(C(=O)NCc1cc2cc(Cl)ccc2[nH]1)[C@@H]1CCCN(C(=O)Cc2ncco2)C1` [Compound 204, (R)-3-((5-chloro-1H-indol-2-yl)methyl)-1-methyl-1-(1-(2-(oxazol-2-yl)acetyl)piperidin-3-yl)urea], the IC50 at human SLC6A19 [1] was 256 nM; on human SLC6A19 [2], 763 nM.
The matching figures for `CN(C(=O)NCc1cc2cc(Cl)ccc2[nH]1)[C@@H]1CCCN(C(=O)c2cnoc2)C1` [Compound 238, (R)-3-((5-chloro-1H-indol-2-yl)methyl)-1-(1-(isoxazole-4-carbonyl)piperidin-3-yl)-1-methylurea]: 283 nM and 836 nM.
On to `CN(C(=O)NCc1cc2cc(Cl)ccc2[nH]1)[C@@H]1CCCN(C(=O)c2cc(F)ccn2)C1` [Compound 111, (R)-3-((5-chloro-1H-indol-2-yl)methyl)-1-(1-(4-fluoropicolinoyl)piperidin-3-yl)-1-methylurea], for which the IC50 on human SLC6A19 [1] is 1320 nM.
Regarding `CN(C(=O)NCc1cc2cc(Cl)ccc2[nH]1)[C@@H]1CCCN(C(=O)Cc2cnco2)C1` [Compound 205, (R)-3-((5-chloro-1H-indol-2-yl)methyl)-1-methyl-1-(1-(2-(oxazol-5-yl)acetyl)piperidin-3-yl)urea], the IC50 at human SLC6A19 [1] was found to be 444 nM.

Values taken from US20260184693A1, “INHIBITORS OF SOLUTE CARRIER FAMILY 6A MEMBER 19 (SLC6A19) AND METHODS OF USE THEREOF” (Maze Therapeutics, Inc., priority 2022, published 2026).
